Experimental data published in ChEMBL document CHEMBL3046407, “Toxicity of monoterpenes against larvae and adults of Colorado potato beetle, Leptinotarsa decemlineata Say (Coleoptera: Chrysomelidae)” (2007).

Key:
Type in all cases: functional
[1] = system: Leptinotarsa decemlineata; assay: Insecticidal activity against second-instar larval stage of Leptinotarsa decemlineata infested potato leaves assessed as mortality at 10 ul after 12 hr relative to control
[2] = system: Leptinotarsa decemlineata; assay: Insecticidal activity against adult Leptinotarsa decemlineata infested potato leaves assessed as mortality at 20 ul after 96 hr relative to control
[3] = system: Leptinotarsa decemlineata; assay: Insecticidal activity against third-instar larval stage of Leptinotarsa decemlineata infested potato leaves assessed as mortality at 10 ul after 24 hr relative to control
[4] = system: Leptinotarsa decemlineata; assay: Insecticidal activity against adult Leptinotarsa decemlineata infested potato leaves assessed as mortality at 20 ul after 48 hr relative to control
[5] = system: Leptinotarsa decemlineata; assay: Insecticidal activity against first-instar larval stage of Leptinotarsa decemlineata infested potato leaves assessed as mortality at 10 ul after 48 hr relative to control
[6] = system: Leptinotarsa decemlineata; assay: Insecticidal activity against first-instar larval stage of Leptinotarsa decemlineata infested potato leaves assessed as mortality at 20 ul after 48 hr relative to control
[7] = system: Leptinotarsa decemlineata; assay: Insecticidal activity against second-instar larval stage of Leptinotarsa decemlineata infested potato leaves assessed as mortality at 20 ul after 24 hr (reference value: 3.3 +/- 3.3%)
[8] = system: Leptinotarsa decemlineata; assay: Insecticidal activity against adult Leptinotarsa decemlineata infested potato leaves assessed as mortality at 10 ul after 24 hr relative to control
[9] = system: Leptinotarsa decemlineata; assay: Insecticidal activity against third-instar larval stage of Leptinotarsa decemlineata infested potato leaves assessed as mortality at 20 ul after 96 hr (reference value: 3.3 +/- 3.3%)
[10] = system: Leptinotarsa decemlineata; assay: Insecticidal activity against second-instar larval stage of Leptinotarsa decemlineata infested potato leaves assessed as mortality at 20 ul after 48 hr (reference value: 3.3 +/- 3.3%)
[11] = system: Leptinotarsa decemlineata; assay: Insecticidal activity against first-instar larval stage of Leptinotarsa decemlineata infested potato leaves assessed as mortality at 10 ul after 96 hr relative to control
[12] = system: Leptinotarsa decemlineata; assay: Insecticidal activity against third-instar larval stage of Leptinotarsa decemlineata infested potato leaves assessed as mortality at 20 ul after 24 hr relative to control
[13] = system: Leptinotarsa decemlineata; assay: Insecticidal activity against second-instar larval stage of Leptinotarsa decemlineata infested potato leaves assessed as mortality at 10 ul after 24 hr (reference value: 3.3 +/- 3.3%)
[14] = system: Leptinotarsa decemlineata; assay: Insecticidal activity against third-instar larval stage of Leptinotarsa decemlineata infested potato leaves assessed as mortality at 10 ul after 12 hr relative to control
[15] = system: Leptinotarsa decemlineata; assay: Insecticidal activity against second-instar larval stage of Leptinotarsa decemlineata infested potato leaves assessed as mortality at 20 ul after 12 hr relative to control
[16] = system: Leptinotarsa decemlineata; assay: Insecticidal activity against second-instar larval stage of Leptinotarsa decemlineata infested potato leaves assessed as mortality at 10 ul after 96 hr (reference value: 3.3 +/- 3.3%)
[17] = system: Leptinotarsa decemlineata; assay: Insecticidal activity against first-instar larval stage of Leptinotarsa decemlineata infested potato leaves assessed as mortality at 10 ul after 12 hr relative to control
[18] = system: Leptinotarsa decemlineata; assay: Insecticidal activity against adult Leptinotarsa decemlineata infested potato leaves assessed as mortality at 20 ul after 24 hr relative to control
[19] = system: Leptinotarsa decemlineata; assay: Insecticidal activity against third-instar larval stage of Leptinotarsa decemlineata infested potato leaves assessed as mortality at 20 ul after 48 hr (reference value: 3.3 +/- 3.3%)
[20] = system: Leptinotarsa decemlineata; assay: Insecticidal activity against third-instar larval stage of Leptinotarsa decemlineata infested potato leaves assessed as mortality at 10 ul after 96 hr (reference value: 3.3 +/- 3.3%)
[21] = system: Leptinotarsa decemlineata; assay: Insecticidal activity against adult Leptinotarsa decemlineata infested potato leaves assessed as mortality at 10 ul after 96 hr relative to control
[22] = system: Leptinotarsa decemlineata; assay: Insecticidal activity against second-instar larval stage of Leptinotarsa decemlineata infested potato leaves assessed as mortality at 20 ul after 96 hr (reference value: 3.3 +/- 3.3%)
[23] = system: Leptinotarsa decemlineata; assay: Insecticidal activity against third-instar larval stage of Leptinotarsa decemlineata infested potato leaves assessed as mortality at 10 ul after 48 hr (reference value: 3.3 +/- 3.3%)
[24] = system: Leptinotarsa decemlineata; assay: Insecticidal activity against second-instar larval stage of Leptinotarsa decemlineata infested potato leaves assessed as mortality at 10 ul after 48 hr (reference value: 3.3 +/- 3.3%)
[25] = system: Leptinotarsa decemlineata; assay: Insecticidal activity against adult Leptinotarsa decemlineata infested potato leaves assessed as mortality at 10 ul after 48 hr relative to control
[26] = system: Leptinotarsa decemlineata; assay: Insecticidal activity against first-instar larval stage of Leptinotarsa decemlineata infested potato leaves assessed as mortality at 10 ul after 24 hr relative to control
[27] = system: Leptinotarsa decemlineata; assay: Insecticidal activity against third-instar larval stage of Leptinotarsa decemlineata infested potato leaves assessed as mortality at 20 ul after 12 hr relative to control
[28] = system: Leptinotarsa decemlineata; assay: Insecticidal activity against adult Leptinotarsa decemlineata infested potato leaves assessed as mortality at 20 ul after 12 hr relative to control
[29] = system: Leptinotarsa decemlineata; assay: Insecticidal activity against first-instar larval stage of Leptinotarsa decemlineata infested potato leaves assessed as mortality at 20 ul after 96 hr relative to control
[30] = system: Leptinotarsa decemlineata; assay: Insecticidal activity against first-instar larval stage of Leptinotarsa decemlineata infested potato leaves assessed as mortality at 20 ul after 12 hr relative to control
[31] = system: Leptinotarsa decemlineata; assay: Insecticidal activity against adult Leptinotarsa decemlineata infested potato leaves assessed as mortality at 10 ul after 12 hr relative to control
[32] = system: Leptinotarsa decemlineata; assay: Insecticidal activity against first-instar larval stage of Leptinotarsa decemlineata infested potato leaves assessed as mortality at 20 ul after 24 hr relative to control

Row | Structure (SMILES) | mortality [1] [%] | mortality [2] [%] | mortality [3] [%] | mortality [4] [%] | mortality [5] [%] | mortality [6] [%] | mortality [7] [%] | mortality [8] [%] | mortality [9] [%] | mortality [10] [%] | mortality [11] [%] | mortality [12] [%] | mortality [13] [%] | mortality [14] [%] | mortality [15] [%] | mortality [16] [%] | mortality [17] [%] | mortality [18] [%] | mortality [19] [%] | mortality [20] [%] | further results
1 | CC(C)=CCC/C(C)=C\CO [NEROL] | 13.3 | 13.3 | 56.7 | 10 | 36.7 | 46.7 | 16.7 | 16.7 | 46.7 | 46.7 | 56.7 | 16.7 | 16.7 | 26.7 | 10 | 56.7 | 13.3 | 6.7 | 30 | 80 | mortality [21]: 23.3%; mortality [22]: 53.3%; mortality [23]: 73.3%; mortality [24]: 36.7%; mortality [25]: 20%; mortality [26]: 16.7%; mortality [27]: 16.7%; mortality [28]: 6.7%; mortality [29]: 56.7%; mortality [30]: 10%; mortality [31]: 13.3%; mortality [32]: 16.7%
2 | CC(=O)OC/C=C(/C)CCC=C(C)C [NERYL ACETATE] | 0 | 30 | 0 | 13.3 | 0 | 10 | 3.3 | 20 | 43.3 | 3.3 | 0 | 23.3 | 0 | 0 | 3.3 | 0 | 0 | 10 | 33.3 | 10 | mortality [21]: 70%; mortality [22]: 6.7%; mortality [23]: 6.7%; mortality [24]: 0%; mortality [25]: 26.7%; mortality [26]: 0%; mortality [27]: 23.3%; mortality [28]: 3.3%; mortality [29]: 10%; mortality [30]: 6.7%; mortality [31]: 0%; mortality [32]: 10%
3 | CC1=CCC(O)(C(C)C)CC1 (stereo unspecified) [TERPINEOL] | 33.3 | 100 | 16.7 | 80 | 73.3 | 100 | 100 | 76.7 | 40 | 100 | 100 | 23.3 | 83.3 | 6.7 | 60 | 100 | 0 | 43.3 | 26.7 | 23.3 | mortality [21]: 100%; mortality [22]: 100%; mortality [23]: 23.3%; mortality [24]: 100%; mortality [25]: 93.3%; mortality [26]: 40%; mortality [27]: 3.3%; mortality [28]: 16.7%; mortality [29]: 100%; mortality [30]: 40%; mortality [31]: 3.3%; mortality [32]: 86.7%
